# According to patent US8410107B2, “N-pyridin-3-yl or N-pyrazin-2-yl carboxamides” (Hoffmann-La Roche Inc., priority 2010, dated 2013):
# Key:
# human CB1 receptor = target: T1, human CB1 receptor (Homo sapiens, UniProt P21554); test: CB1 receptor affinity ([3H]-CP-55,940 displacement, HEK cell membranes); format: binding; conditions: displacement of radioligand [3H]-CP-55,940
# T1 construct: expressed in transfected cells; host or cells: human embryonic kidney (HEK) cells, Semliki Forest Virus system, membrane preparations
# Description: (§1) The affinity of the compounds of the invention for cannabinoid receptors was determined using membrane preparations of human embryonic kidney (HEK) cells in which the human CB1 receptor is transiently transfected using a Semliki Forest Virus system in conjunction with [3H]-CP-55,940 as radioligand. After incubation of freshly prepared cell membrane preparation with the [^3H]-ligand, with or without addition of compounds of the invention, separation of bound and free ligand was performed by filtration over glass fiber filters. Radioactivity on the filter was measured by scintillation counting.
# (§2) The ability of the compounds to displace the radioligand [^3H]-CP-55,940 was measured at a concentration of 10 μM and values provided as [% inhibition @ 10 μM] both for the CB1 and CB2 receptor assay, The lower % inhibition is, the lower the likelihood of side effects based on CB1 or CB2 receptor inhibition is.
# human CB2 receptor = target: T2, human CB2 receptor (Homo sapiens, UniProt P34972); test: CB2 receptor affinity ([3H]-CP-55,940 displacement, HEK cell membranes); format: binding; conditions: displacement of radioligand [3H]-CP-55,940
# T2 construct: expressed in transfected cells; host or cells: human embryonic kidney (HEK) cells, Semliki Forest Virus system, membrane preparations
# Description: as §1, with “cannabinoid CB2” for “cannabinoid”, “CB2” for “CB1”, “[^3H]-CP-55,940” for “[3H]-CP-55,940”
# as §2
# ABCA1 protein = test: Detection of upregulation of ABCA1 protein in cells (ApoA-I binding, high content image analysis); format: cell-based; conditions: THP-1 macrophage cells; for % increase of ABCA1 at 3 μM: 24 hrs with compound; for EC50: ABCA1 protein increasing efficacy
# Description: The ability of compounds of the invention to increase the level of ABCA1 protein is determined in replicate cultures of THP-1 macrophage cells in 96-well microplates. Cells are plated at an initial density of 100,000 cells/well in 100 μl medium and differentiated to adherent macrophages with the addition of PMA (100 nM) for 68 hrs in 10% fetal bovine serum, 3 μl/L of b-mercaptoethanol, RPMI-1640 medium. Then, cells are incubated with RPMI-1640 medium containing 1% FCS, 25 μg/ml acetylated LDL, for 24 hours at 37°. Following incubation with acetylated LDL, cells are washed twice with 50 μl PBS and incubated with 100 μl of RPMI-1640 medium containing the compound of interest solubilized in DMSO for an additional 24 hrs. The final DMSO concentration in presence of cells is maintained at 0.5%. ApoA-I binding assay using High Content Image Analysis is initiated by replacing with fresh medium, RPMI without Phenol Red, 0.2% BSA containing AlexaFluor®647 labeled ApoA-I for 2 h/37° C./5% CO2. Then, cells are fixed with 4% Formaldehyde inPBS (15 min, RT). Following Nuclei are stained with Hoechst solution (3 μM PBS) and Cytoplasm with Cell Mask Blue (2 μg/ml PBS), 15 min, RT. Finally the stained cells are fixed with a second round of formaldehyde treatment. Fixed stained cells are washed and kept in PBS at 4° C. and can be read immediately until one month after preparation.
# The Alexa Fluor 647-labeled Apolipoprotein A-I (20 nM) was prepared as follows: Human recombinant Apolipoprotein A-I (ApoA-I) was exchanged to a buffer of 0.02 M NaHCO3 at pH 8.2 on an NAP desalting column (GE Healthcare) and brought to a concentration to 40 μM (1.13 mg/ml) by adjustment with the same buffer. The ApoA-I was fluorescently labeled by incubation with Alexa Fluor carboxylic acid succimidyl ester. (Alexa Fluor 647, Invitrogen A-20006) at a 2:1 molar ratio (Alexa to ApoA-I) for 1 h under shaking at RT. The remaining unconjugated label was removed by buffer exchange to 0.02M NaHCO3 at pH 8.2.
# Imaging and data collection were performed on an OPERA confocal microplate imaging reader using a 20× water immersion objective and UV360 or 405 laser to identify the cell nuclei and a 635 laser to identify the fluorescent ApoA-I. Eight fields of view are captured per well. Image capture and analysis was performed with the Acapella software. Background fluorescence detected in control wells without ApoA-I was subtracted.
# Using XLfit3 program (ID Business Solutions Ltd. UK), the model 205 for Dose Response One Site is used to calculate the EC50 values. The compounds of the present invention increase the level of ABCA1 protein by more than 45% at a concentration of 3 μM. […] Even more preferably, the compounds of the present invention have EC50 values in a range of 0.1 μM to 3 μM.
# T2 sequence (P34972 whole entry): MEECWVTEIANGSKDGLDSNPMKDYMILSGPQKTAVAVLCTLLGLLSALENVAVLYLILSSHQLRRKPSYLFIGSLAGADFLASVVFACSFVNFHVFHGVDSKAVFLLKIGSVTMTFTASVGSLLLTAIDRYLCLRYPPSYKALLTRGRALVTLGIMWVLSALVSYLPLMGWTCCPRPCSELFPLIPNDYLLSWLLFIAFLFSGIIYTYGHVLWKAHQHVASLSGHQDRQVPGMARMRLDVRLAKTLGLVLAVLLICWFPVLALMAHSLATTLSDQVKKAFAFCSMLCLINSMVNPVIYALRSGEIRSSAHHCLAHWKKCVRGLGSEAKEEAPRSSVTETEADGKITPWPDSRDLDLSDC
# T1 sequence (P21554 whole entry): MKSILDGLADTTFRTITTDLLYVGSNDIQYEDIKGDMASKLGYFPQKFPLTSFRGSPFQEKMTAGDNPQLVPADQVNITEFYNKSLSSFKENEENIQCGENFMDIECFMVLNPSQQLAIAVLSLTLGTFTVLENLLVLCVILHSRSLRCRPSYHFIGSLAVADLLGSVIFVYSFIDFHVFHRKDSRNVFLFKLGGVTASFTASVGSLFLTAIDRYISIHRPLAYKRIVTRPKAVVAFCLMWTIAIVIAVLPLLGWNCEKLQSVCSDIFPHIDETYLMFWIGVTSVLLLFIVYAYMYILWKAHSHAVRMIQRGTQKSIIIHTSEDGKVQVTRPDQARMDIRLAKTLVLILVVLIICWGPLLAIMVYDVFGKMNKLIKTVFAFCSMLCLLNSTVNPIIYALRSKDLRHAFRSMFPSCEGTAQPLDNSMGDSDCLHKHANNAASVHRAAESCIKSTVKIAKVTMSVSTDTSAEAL
Structure (SMILES),inhibition at 10 µM (human CB1 receptor),inhibition at 10 µM (human CB2 receptor),% increase of ABCA1 at 3 μM (ABCA1 protein),EC50 (ABCA1 protein)
"CCCCC(=O)Nc1cnc(OCC(F)(F)F)c(-c2ccc(Cl)cc2)c1 [Example 1, pentanoic acid[5-(4-chloro-phenyl)-6-(2,2,2-trifluoro-ethoxy)-pyridin-3-yl]-amide]",45%,9.2%,>45% @ 3 μM,
"O=C(Nc1cnc(OCC(F)(F)F)c(-c2ccc(Cl)cc2)c1)c1ccccc1 [Example 2, N-[5-(4-chloro-phenyl)-6-(2,2,2-trifluoro-ethoxy)-pyridin-3-yl]-benzamide]",33%,4.9%,,2.69 µM
"O=C(Nc1cnc(OCC(F)(F)F)c(-c2ccc(Cl)cc2)c1)c1cccnc1 [Example 3, N-[5-(4-chloro-phenyl)-6-(2,2,2-trifluoro-ethoxy)-pyridin-3-yl]-nicotinamide]",29%,8%,,2.28 µM
"O=C(Nc1cnc(OCC(F)(F)F)c(-c2ccc(Cl)cc2)c1)c1ccncc1 [Example 4, N-[5-(4-chloro-phenyl)-6-(2,2,2-trifluoro-ethoxy)-pyridin-3-yl]-isonicotinamide]",36%,1.9%,>45% @ 3 μM,
"CC(=O)Nc1cnc(OCC(F)(F)F)c(-c2ccc(Cl)cc2)c1 [Example 5, N-[5-(4-chloro-phenyl)-6-(2,2,2-trifluoro-ethoxy)-pyridin-3-yl]-acetamide]",19%,-5.4%,>45% @ 3 μM,
"CCCC(=O)Nc1cnc(OCC(F)(F)F)c(-c2ccc(Cl)cc2)c1 [Example 6, N-[5-(4-Chloro-phenyl)-6-(2,2,2-trifluoro-ethoxy)-pyridin-3-yl]-butyramide]",47%,11%,>45% @ 3 μM,
"O=C(Nc1cnc(OCC(F)(F)F)c(-c2ccc(Cl)cc2)c1)c1ccccn1 [Example 7, pyridine-2-carboxylic acid[5-(4-chloro-phenyl)-6-(2,2,2-trifluoro-ethoxy)-pyridin-3-yl]-amide]",13%,1.2%,>45% @ 3 μM,
"O=C(Nc1cnc(OCC2CC2)c(-c2ccc(Cl)cc2)c1)c1ccccc1 [Example 8, N-[5-(4-chloro-phenyl)-6-cyclopropylmethoxy-pyridin-3-yl]-benzamide]",52%,15%,,2.77 µM
"CC(=O)Nc1cnc(OCC2CC2)c(-c2ccc(Cl)cc2)c1 [Example 9, N-[5-(4-chloro-phenyl)-6-cyclopropylmethoxy-pyridin-3-yl]-acetamide]",24%,9.6%,>45% @ 3 μM,
"O=C(Nc1cnc(OCC2CC2)c(-c2ccc(Cl)cc2)c1)c1cccnc1 [Example 10, N-[5-(4-chloro-phenyl)-6-cyclopropylmethoxy-pyridin-3-yl]-nicotinamide]",36%,28%,,6.51 µM
"O=C(Nc1cnc(OCC2CC2)c(-c2ccc(Cl)cc2)c1)c1ccncc1 [Example 11, N-[5-(4-chloro-phenyl)-6-cyclopropylmethoxy-pyridin-3-yl]-isonicotinamide]",25%,-1.2%,>45% @ 3 μM,

# More lines, main results first:
inhibition at 10 µM (human CB1 receptor),inhibition at 10 µM (human CB2 receptor),Structure (SMILES),% increase of ABCA1 at 3 μM (ABCA1 protein),EC50 (ABCA1 protein)
49%,15%,"O=C(Nc1cnc(OCC(F)(F)F)c(-c2ccc(Cl)cc2)c1)[C@H]1CCCO1 (racemic) [Example 70, (RS)-N-(5-(4-chlorophenyl)-6-(2,2,2-trifluoroethoxy)pyridin-3-yl)tetrahydrofuran-2-carboxamide]",>45% @ 3 μM,
41%,4%,"O=C(Nc1cnc(OCC(F)(F)F)c(-c2ccc(Cl)cc2)c1)[C@H]1CCOC1 (racemic) [Example 71, (SR)-N-(5-(4-chlorophenyl)-6-(2,2,2-trifluoroethoxy)pyridin-3-yl)-tetrahydrofuran-3-carboxamide]",>45% @ 3 μM,
22%,4%,"O=C(Nc1cnc(OCC(F)(F)F)c(-c2ccc(Cl)cc2)c1)c1cnccn1 [Example 12, pyrazine-2-carboxylic acid[5-(4-chloro-phenyl)-6-(2,2,2-trifluoro-ethoxy)-pyridin-3-yl]-amide]",>45% @ 3 μM,
16%,3%,"Cc1cc(C(=O)Nc2cnc(OCC(F)(F)F)c(-c3ccc(Cl)cc3)c2)n(C)n1 [Example 13, 2,5-dimethyl-2H-pyrazole-3-carboxylic acid[5-(4-chloro-phenyl)-6-(2,2,2-trifluoro-ethoxy)-pyridin-3-yl]-amide]",>45% @ 3 μM,
38%,10%,"Cc1nocc1C(=O)Nc1cnc(OCC(F)(F)F)c(-c2ccc(Cl)cc2)c1 [Example 14, 3-methyl-isoxazole-4-carboxylic acid[5-(4-chloro-phenyl)-6-(2,2,2-trifluoro-ethoxy)-pyridin-3-yl]-amide]",>45% @ 3 μM,
27%,2%,"Cn1ccc(C(=O)Nc2cnc(OCC(F)(F)F)c(-c3ccc(Cl)cc3)c2)n1 [Example 15, 1-methyl-1H-pyrazole-3-carboxylic acid[5-(4-chloro-phenyl)-6-(2,2,2-trifluoro-ethoxy)-pyridin-3-yl]-amide]",>45% @ 3 μM,
34%,-1%,"Cc1cc(C(=O)Nc2cnc(OCC(F)(F)F)c(-c3ccc(Cl)cc3)c2)no1 [Example 16, 5-methyl-3-isoxazolecarboxylic acid[5-(4-chloro-phenyl)-6-(2,2,2-trifluoro-ethoxy)-pyridin-3-yl]-amide]",,6.05 µM
16%,-3%,"O=C(Nc1cnc(OCC(F)(F)F)c(-c2ccc(Cl)cc2)c1)c1cccnn1 [Example 17, 3-pyridazinecarboxylic acid[5-(4-chloro-phenyl)-6-(2,2,2-trifluoro-ethoxy)-pyridin-3-yl]-amide]",,2.31 µM
37%,3%,"Cc1cnccc1C(=O)Nc1cnc(OCC(F)(F)F)c(-c2ccc(Cl)cc2)c1 [Example 18, N-[5-(4-chloro-phenyl)-6-(2,2,2-trifluoro-ethoxy)-pyridin-3-yl]-3-methyl-4-pyridinecarboxylic acid amide]",>45% @ 3 μM,
25%,-10%,"O=C(Nc1cnc(OCC(F)(F)F)c(-c2ccc(Cl)cc2)c1)c1cncnc1 [Example 19, 5-pyrimidinecarboxylic acid[5-(4-chloro-phenyl)-6-(2,2,2-trifluoro-ethoxy)-pyridin-3-yl]-amide]",,1.39 µM
